The source of these data is ChEMBL document CHEMBL1201862, “PubChem BioAssay data set” (2004).

Among the test systems are SK-MEL-2; SNB-75; SW-620; IGROV-1; K562; HT-29; NCI-H460; U-251; UACC-62; SK-OV-3; ACHN; OVCAR-5; SK-MEL-5; OVCAR-3; CAKI-1; SF-268; MOLT-4; RPMI-8226; MCF7.
Common to all, as to test: NCI tumour cell line growth inhibition, 48 h

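Exposure lasted 48 hours, with cells grown in 96-well plates and compounds tested at five concentrations. GI50 = concentration required for 50% inhibition of growth.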 Active and inactive are the calls of the source. No stated cut-off is given here; in the data, active = GI50 up to about 1.1 µM and inactive = higher.

On to `O=C1c2ccc(O)cc2C(=O)c2ccc(O)cc21`, for which the GI50 with SK-MEL-2 was 45.7 µM (inactive); with SNB-75, 29.6 µM (inactive); in the test on SW-620 it was 92.5 µM (inactive); in the test with IGROV-1, 48.3 µM (inactive); in the test on K562, 50.1 µM (inactive); with HT-29, > 100 µM (inactive). Besides, the GI50 with NCI-H460 was 53.2 µM (inactive); in the test on U-251, 49.4 µM (inactive); with UACC-62, 56.8 µM (inactive); with SK-OV-3, 33.2 µM (inactive); in the test on ACHN, 36.9 µM (inactive); with OVCAR-5 it was > 100 µM (inactive). For the same compound, the GI50 is > 100 µM (inactive) in the test with SK-MEL-5; 78.5 µM (inactive) in the test on OVCAR-3; 32.9 µM (inactive) in the test with CAKI-1; 55.3 µM (inactive) in the test with SF-268; 31.6 µM (inactive) in the test on MOLT-4; 42.8 µM (inactive) with RPMI-8226.

`Nc1c(-c2nc3ccccc3s2)[n+]([O-])c2ccccc2[n+]1[O-]`: the GI50 in the test on SK-MEL-2 is 29.1 µM (inactive); in the test on SNB-75, 26.7 µM (inactive); in the test with SW-620 it was 43.5 µM (inactive); with IGROV-1 it was 29.9 µM (inactive); with K562 it was 45.8 µM (inactive); with HT-29, 37 µM (inactive). For the same compound, the GI50 with NCI-H460 was 28.1 µM (inactive); with U-251, 38.9 µM (inactive); with UACC-62, 33.8 µM (inactive); in the test on SK-OV-3 it was 37 µM (inactive); in the test with ACHN, 24.6 µM (inactive); in the test on OVCAR-5, > 100 µM (inactive). In addition, the GI50 was 17 µM (inactive) in the test with SK-MEL-5; 23.3 µM (inactive) with OVCAR-3; 25.8 µM (inactive) in the test with CAKI-1; 26.9 µM (inactive) in the test on SF-268; 32.7 µM (inactive) with MOLT-4; 25.8 µM (inactive) in the test on RPMI-8226.

Regarding `Cc1ccc(NC(=O)C(=O)C2C(=O)NC(=O)NC2=O)cc1C`, the GI50 in the test with SK-MEL-2, with SNB-75, in the test with SW-620, in the test on IGROV-1, in the test with K562 and in the test on HT-29 was > 100 µM (inactive) in each case. For the same compound, the GI50 with NCI-H460, in the test on U-251, in the test with UACC-62, in the test on SK-OV-3, in the test with ACHN and in the test on OVCAR-5 was > 100 µM (inactive) throughout. The GI50 in the test on SK-MEL-5, in the test on OVCAR-3, in the test on CAKI-1, in the test on SF-268, in the test on MOLT-4 and in the test with RPMI-8226 was > 100 µM (inactive) each time.

On to `C[C@H]1CCC2C(CN3CCCCC3)C(=O)OC2[C@]2(C)C(=O)CC(N3CCCCC3)C12O` (some centres not stated), for which the GI50 in the test on SK-MEL-2 is 10.7 µM (inactive); in the test with SNB-75, 11.3 µM (inactive); in the test on SW-620, 3.64 µM (inactive); with IGROV-1 it was 18.8 µM (inactive); in the test on K562, 2.4 µM (inactive); with HT-29 it was 3.9 µM (inactive). Further, the GI50 with NCI-H460 is 12.8 µM (inactive); with U-251, 5.53 µM (inactive); in the test on UACC-62, 2.36 µM (inactive); in the test on SK-OV-3, 28.6 µM (inactive); in the test with ACHN, 2.8 µM (inactive); with OVCAR-5, 10.7 µM (inactive). Further, the GI50 was 4.73 µM (inactive) with SK-MEL-5; 4.48 µM (inactive) in the test with OVCAR-3; 15.7 µM (inactive) with CAKI-1; 6.95 µM (inactive) with SF-268; 2.21 µM (inactive) in the test with MOLT-4; 2.71 µM (inactive) with RPMI-8226.

On to `COC(=O)c1onc(-c2c(OC)cc(OC)cc2OC)c1C(=O)OC`, for which the GI50 with SK-MEL-2, in the test with SNB-75, in the test on SW-620, with IGROV-1, with K562 and with HT-29 was > 100 µM (inactive) throughout. For the same compound, the GI50 in the test on NCI-H460, in the test on U-251, with UACC-62, with SK-OV-3, with ACHN and in the test with OVCAR-5 was > 100 µM (inactive) throughout. The GI50 in the test with SK-MEL-5, in the test on OVCAR-3, with CAKI-1, with SF-268, with MOLT-4 and in the test with RPMI-8226 was > 100 µM (inactive) in each case.

With `CCc1ccc(/N=C\c2cc(OC)c(OC)c(OC)c2)cc1`, the GI50 in the test with SK-MEL-2 is > 100 µM (inactive); in the test with SNB-75, > 100 µM (inactive); with SW-620, 10.9 µM (inactive); with IGROV-1, > 100 µM (inactive); in the test on K562, 26.5 µM (inactive); in the test on HT-29, > 100 µM (inactive). The GI50 is 37.7 µM (inactive) in the test with NCI-H460; > 100 µM (inactive) with U-251; > 100 µM (inactive) in the test on UACC-62; > 100 µM (inactive) in the test with SK-OV-3; > 100 µM (inactive) in the test with ACHN; > 100 µM (inactive) in the test with OVCAR-5. Besides, the GI50 was > 100 µM (inactive) with SK-MEL-5; > 100 µM (inactive) in the test on OVCAR-3; > 100 µM (inactive) in the test with CAKI-1; > 100 µM (inactive) in the test on SF-268; > 100 µM (inactive) with MOLT-4; 16.6 µM (inactive) with RPMI-8226.

`O=C(O)CCC1CCc2cccc3occ1c23` (configuration not stated): the GI50 in the test on SK-MEL-2, in the test on SNB-75, in the test with SW-620, in the test on IGROV-1, with K562 and with HT-29 was > 100 µM (inactive) each time. For the same compound, the GI50 in the test on NCI-H460, in the test with U-251, with UACC-62, in the test on SK-OV-3, in the test with ACHN and in the test on OVCAR-5 was > 100 µM (inactive) throughout. Besides, the GI50 in the test with SK-MEL-5, in the test with OVCAR-3, in the test with CAKI-1, in the test on SF-268, with MOLT-4 and in the test with RPMI-8226 was > 100 µM (inactive) in each case.

With `CCCC(=O)OC[n+]1ccc2c(C)c3[nH]c4ccccc4c3c(C)c2c1`, the GI50 with SK-MEL-2 is 1.51 µM (inactive); with SNB-75, > 100 µM (inactive); with SW-620 it was 0.215 µM (active); in the test on IGROV-1, 0.51 µM (active); in the test on K562 it was 0.466 µM (active); in the test on HT-29 it was > 100 µM (inactive). Further, the GI50 with NCI-H460 was 0.0208 µM (active); in the test with U-251, 0.498 µM (active); in the test on UACC-62, 1.5 µM (inactive); in the test on SK-OV-3 it was 0.547 µM (active); in the test with ACHN, 0.504 µM (active); in the test with OVCAR-5, 1.04 µM (active). Further, the GI50 was 1.54 µM (inactive) with SK-MEL-5; 1.2 µM (inactive) in the test on OVCAR-3; 1.29 µM (inactive) in the test with CAKI-1; 0.661 µM (active) in the test with SF-268; 0.0661 µM (active) in the test on MOLT-4; 0.0374 µM (active) in the test with RPMI-8226.

On to `CC(C)c1ccc(/C=C(\NC(=O)c2ccccc2)c2nc3ccccc3[nH]2)cc1`, for which the GI50 in the test on SK-MEL-2 is 34.4 µM (inactive); in the test with SNB-75 it was 36.3 µM (inactive); with SW-620, 49.4 µM (inactive); in the test with IGROV-1 it was 73.8 µM (inactive); with K562, 27.5 µM (inactive); in the test with HT-29, 33.6 µM (inactive). Besides, the GI50 in the test with NCI-H460 was 59.4 µM (inactive); with U-251, 39.4 µM (inactive); in the test on UACC-62, 37.4 µM (inactive); in the test with SK-OV-3 it was > 100 µM (inactive); in the test on ACHN, 33.7 µM (inactive); in the test on OVCAR-5 it was 75.3 µM (inactive). Moreover, the GI50 was 23.5 µM (inactive) with SK-MEL-5; 37.3 µM (inactive) in the test on OVCAR-3; 50.6 µM (inactive) in the test with CAKI-1; 41 µM (inactive) in the test on SF-268; 23.3 µM (inactive) in the test on MOLT-4; 20 µM (inactive) in the test on RPMI-8226.

Consider `c1ccc(C2C3=C(Nc4ncnn42)c2ccccc2C3)cc1` (configuration not stated), for which the GI50 was 11.6 µM (inactive) in the test with SK-MEL-2; 83.9 µM (inactive) in the test on SNB-75; 4.93 µM (inactive) with SW-620; 86.1 µM (inactive) in the test on IGROV-1; 7.93 µM (inactive) with K562; 4.3 µM (inactive) in the test with HT-29. In addition, the GI50 with NCI-H460 is 12.1 µM (inactive); in the test on U-251, 2.93 µM (inactive); in the test on UACC-62 it was 4.99 µM (inactive); in the test with SK-OV-3, 13.2 µM (inactive); in the test with ACHN, 82.6 µM (inactive); with OVCAR-5, 46.8 µM (inactive). Moreover, the GI50 is 10.9 µM (inactive) in the test with SK-MEL-5; 8.93 µM (inactive) with OVCAR-3; 42.3 µM (inactive) in the test on CAKI-1; 20 µM (inactive) in the test with SF-268; 17.4 µM (inactive) in the test on MOLT-4; 29.5 µM (inactive) in the test on RPMI-8226.

Turning to `CC(=O)OC1CC2c3cccc4c3C(CC2N(C)C1=O)CN4C(=O)c1ccccc1` (configuration not stated), the GI50 is 20.5 µM (inactive) in the test with SK-MEL-2; 23.4 µM (inactive) in the test with SW-620; 14.6 µM (inactive) with IGROV-1; 27.5 µM (inactive) with K562; 17.9 µM (inactive) with HT-29; 15.7 µM (inactive) in the test with U-251. Moreover, the GI50 in the test on UACC-62 was 20.3 µM (inactive); in the test on SK-OV-3, 22.7 µM (inactive); in the test with ACHN it was 20 µM (inactive); in the test with OVCAR-5, 32.4 µM (inactive); in the test on SK-MEL-5, 14.4 µM (inactive); with MCF7 it was 23.1 µM (inactive). Further, the GI50 in the test on OVCAR-3 was 13.8 µM (inactive); with CAKI-1, 23 µM (inactive); in the test on SF-268, 2.2 µM (inactive); in the test with MOLT-4, 20.9 µM (inactive); in the test with RPMI-8226 it was 26.6 µM (inactive).
